Data published in patent US20060004029A1, “Nitrogen-containing aromatic derivatives” (priority 2003, published 2006).
Read-outs that look alike come from different tables or passages of the source.

Key:
VEGFR2 = molecular target: T1, VEGFR2 (Homo sapiens, UniProt P35968); assay: Inhibition against receptor tyrosine kinase activity (HTRF), VEGFR2; assay type: biochemical
T1 construct: coding for the cytoplasmic domain, beginning with lysine 791 and including the termination codon; made in house; host or cells: Sf9 insect cells, baculovirus (pFastBacHis)
Description: This assay is used to determine inhibition of a test substance on tyrosine kinase activity. […] Expression in an appropriate expression system can produce a polypeptide with tyrosine kinase activity. […] The recombinant construct was transfected into insect cells (Spondoptea frugiperda9 (Sf9)) to prepare a recombinant Baculovirus.
For expression of the VEGFR2 tyrosine kinase, Sf9 cells were infected with the VEGFR2 recombinant virus and collected after 48 hours. The collected cells were rinsed with ice-cooled phosphate buffered saline (PBS) and then resuspended using 20 ml of ice-cooled Lysis Buffer (50 mM Tris-HCl (pH 8.5), 5 mM 2-mercaptoethanol, 100 mM KCl, 1 mM phenylmethylsulfonyl fluoride, 1% (v/v) NP-40) per 1.5×10^8 cells. The suspension was centrifuged at 12,000 rpm for 30 minutes at 4° C. and the supernatant was obtained. The supernatant was added to a Ni-NTA agarose column (3 ml, purchased from Qiagen) equilibrated with Buffer A {20 mM Tris-HCl (pH 8.5), 5 mM 2-mercaptoethanol, 500 mM KCl, 20 mM imidazole, 10% (v/v) glycerol}. The column was washed with 30 ml of Buffer A, and then with 6 ml of Buffer B {20 mM Tris-HCl (pH 8.5), 5 mM 2-mercaptoethanol, 1M KCl, 10% (v/v) glycerol}, and finally with 6 ml of Buffer A. After washing, it was eluted with 6 ml of Buffer C {20 mM Tris-HCl (pH 8.5), 5 mM 2-mercaptoethanol, 100 mM KCl, 100 mM imidazole, 10% (v/v) glycerol}. The eluate was placed on a dialysis membrane (purchased from Spectrum Laboratories) and dialyzed with a dialysis buffer {20 mM Tris-HCl (pH 7.5), 10% (v/v) glycerol, 1 mM dithiothreitol, 0.1 mM Na3VO4, 0.1 mM EGTA}. […] Using the same method for the cytoplasmic domains of FGFR1, PDGFRβ and HGFR yielded respective recombinant proteins fused with 6 histidine residues at the N-terminal (His6-FGFR1, His6-PDGFRβ or His6-HGFR).
The tyrosine kinase reaction was conducted as follows. […] Next, 10 μl of 4 μM ATP (diluted with distilled water) was added prior to incubation at 30° C. for 10 minutes, and then 10 μl of 500 mM EDTA (pH 8.0) was added.
The tyrosine phosphorylation rate for the biotin-poly(GT) was expressed as the delta F % value as described in the HTRF Standard Experiment Methods text by CIS Diagnostics Co. The delta F % value in the presence of the test substance was determined as a ratio (%) with the delta F % value with addition of His6-VEGFR2 in the absence of the test substance defined as 100% and the delta F % value in the absence of both the test substance and His6-VEGFR2 defined as 0%.

FGFR1 = molecular target: T2, FGFR1 (Homo sapiens, UniProt P11362); assay: Inhibition against receptor tyrosine kinase activity (HTRF), FGFR1; assay type: biochemical
T2 construct: made in house; host or cells: Sf9 insect cells, baculovirus (pFastBacHis), by the same method as VEGFR2
Text: This assay is used to determine inhibition of a test substance on tyrosine kinase activity. DNA coding for the cytoplasmic domain of VEGFR2 is obtained by total cDNA synthesis (Edwards M, International Biotechnology Lab 5(3), 19-25, 1987) or by cloning. Expression in an appropriate expression system can produce a polypeptide with tyrosine kinase activity. […] For VEGFR2 (GenBank Accession No. L04947), the 1.7 kb DNA fragment described by Terman et al. (Oncogene, 6(9), 1677-1683, 1991), coding for the cytoplasmic domain, beginning with lysine 791 and including the termination codon, was isolated from a human placental cDNA library (purchased from Clontech Laboratories, Inc.) and cloned in a Baculovirus expression vector (pFastBacHis, purchased from GIBCO BRL). The recombinant construct was transfected into insect cells (Spondoptea frugiperda9 (Sf9)) to prepare a recombinant Baculovirus. (Instructions for preparation and use of recombinant Baculovirus may be found in standard texts, such as “Bac-To-Bac Baculovirus Expression System” (GIBCO BRL).) The cytoplasmic fragment starting from lysine 398 (FGFR1, GenBank Accession No. X52833), the cytoplasmic fragment starting from lysine 558 (PDGFRβ, GenBank Accession No. M21616) or the cytoplasmic fragment starting from lysine 974 (HGFR, GenBank Accession No. J02958) may be cloned and expressed by the same method for use in assays for other tyrosine kinases. EGFR was purchased from Sigma Co. (Product No. E-2645).
For expression of the VEGFR2 tyrosine kinase, Sf9 cells were infected with the VEGFR2 recombinant virus and collected after 48 hours. The collected cells were rinsed with ice-cooled phosphate buffered saline (PBS) and then resuspended using 20 ml of ice-cooled Lysis Buffer (50 mM Tris-HCl (pH 8.5), 5 mM 2-mercaptoethanol, 100 mM KCl, 1 mM phenylmethylsulfonyl fluoride, 1% (v/v) NP-40) per 1.5×10^8 cells. The suspension was centrifuged at 12,000 rpm for 30 minutes at 4° C. and the supernatant was obtained. The supernatant was added to a Ni-NTA agarose column (3 ml, purchased from Qiagen) equilibrated with Buffer A {20 mM Tris-HCl (pH 8.5), 5 mM 2-mercaptoethanol, 500 mM KCl, 20 mM imidazole, 10% (v/v) glycerol}. The column was washed with 30 ml of Buffer A, and then with 6 ml of Buffer B {20 mM Tris-HCl (pH 8.5), 5 mM 2-mercaptoethanol, 1M KCl, 10% (v/v) glycerol}, and finally with 6 ml of Buffer A. After washing, it was eluted with 6 ml of Buffer C {20 mM Tris-HCl (pH 8.5), 5 mM 2-mercaptoethanol, 100 mM KCl, 100 mM imidazole, 10% (v/v) glycerol}. The eluate was placed on a dialysis membrane (purchased from Spectrum Laboratories) and dialyzed with a dialysis buffer {20 mM Tris-HCl (pH 7.5), 10% (v/v) glycerol, 1 mM dithiothreitol, 0.1 mM Na3VO4, 0.1 mM EGTA}. After dialysis, it was supplied for SDS-electrophoresis, and the recombinant protein (His6-VEGFR2, cytoplasmic domain of VEGFR2 fused with 6 histidine residues at the N-terminus) detected at a molecular weight of approximately 100 kDa with Coumassie Brilliant Blue staining was assayed using BSA (bovine serum albumin, purchased from Sigma Co.) as the standard substance, and stored at −80° C. until use. Using the same method for the cytoplasmic domains of FGFR1, PDGFRβ and HGFR yielded respective recombinant proteins fused with 6 histidine residues at the N-terminal (His6-FGFR1, His6-PDGFRβ or His6-HGFR).
The tyrosine kinase reaction was conducted as follows. In the case of VEGFR2, for example, 10 μl of a kinase reaction solution {200 mM Hepes (pH 7.4), 80 mM MgCl2, 16 mM MnCl2, 2 mM Na3VO4}, 250 ng of biotin-bound poly(Glu4:Tyr1) (biotin-poly(GT), purchased from CIS Diagnostics Co.) (6 μl of a 15-fold dilution with distilled water), 15 ng of His6-VEGFR2 (10 μl of a 240-fold dilution with 0.4% BSA solution) and the test substance dissolved in dimethyl sulfoxide (4 μl of a 100-fold dilution with 0.1% BSA solution) were added into each well of a 96-well round-bottom plate (NUNC Co., Product No. 163320), to a total of 30 μl. […]

[1] = His6-VEGFR2 cytoplasmic domain, biotin-poly(GT), HTRF, read-out: VEGFR2 kinase IC50
[2] = His6-FGFR1 cytoplasmic domain, biotin-poly(GT), HTRF, read-out: FGFR1 kinase IC50

T1 sequence (P35968 786-1356 limits assumed): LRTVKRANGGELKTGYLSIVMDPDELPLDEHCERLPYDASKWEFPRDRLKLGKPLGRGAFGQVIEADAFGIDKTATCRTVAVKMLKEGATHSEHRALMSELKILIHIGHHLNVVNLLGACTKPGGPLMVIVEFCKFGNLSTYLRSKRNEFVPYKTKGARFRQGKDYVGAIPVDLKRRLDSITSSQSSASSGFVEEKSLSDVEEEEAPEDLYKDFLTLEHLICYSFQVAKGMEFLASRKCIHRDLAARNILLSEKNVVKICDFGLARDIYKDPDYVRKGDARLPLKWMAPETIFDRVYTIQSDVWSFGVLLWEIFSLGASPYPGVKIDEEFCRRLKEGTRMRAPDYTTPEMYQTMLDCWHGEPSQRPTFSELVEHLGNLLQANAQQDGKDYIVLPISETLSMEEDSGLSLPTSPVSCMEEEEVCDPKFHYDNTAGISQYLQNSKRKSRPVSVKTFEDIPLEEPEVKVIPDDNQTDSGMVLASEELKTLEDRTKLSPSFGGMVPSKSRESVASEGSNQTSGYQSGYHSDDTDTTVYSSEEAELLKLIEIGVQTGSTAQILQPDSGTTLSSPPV
T2 sequence (P11362 398-822 limits assumed): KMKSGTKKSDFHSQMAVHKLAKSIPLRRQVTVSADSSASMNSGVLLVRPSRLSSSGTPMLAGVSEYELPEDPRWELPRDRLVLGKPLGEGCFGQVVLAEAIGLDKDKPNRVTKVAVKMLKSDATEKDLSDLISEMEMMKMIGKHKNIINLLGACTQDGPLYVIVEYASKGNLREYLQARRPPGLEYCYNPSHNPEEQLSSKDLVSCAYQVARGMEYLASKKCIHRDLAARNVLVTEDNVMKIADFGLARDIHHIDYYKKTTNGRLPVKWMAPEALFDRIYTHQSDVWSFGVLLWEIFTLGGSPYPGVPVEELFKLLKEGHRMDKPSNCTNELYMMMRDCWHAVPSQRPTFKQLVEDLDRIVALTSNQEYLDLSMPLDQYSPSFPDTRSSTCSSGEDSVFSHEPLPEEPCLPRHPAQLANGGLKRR

Compound	IC50 (VEGFR2; [1])	IC50 (FGFR1; [2])	IC50 (VEGFR2)	IC50 (FGFR1)
CNC(=O)n1ccc2cc(Oc3ccnc(NC(=O)NCC(=O)N4CCCC4)c3)ccc21 [Example 7, 5-(2-(3-(2-Oxo-2-(pyrrolidin-1-yl)ethyl)ureido)pyridin-4-yloxy)-1H-indole-1-carboxylic acid methylamide]	8 nM	26 nM		
CNC(=O)n1ccc2cc(Oc3ccnc(NC(=O)NCC(N)=O)c3)ccc21 [Example 11, 5-(2-(3-Carbamoylmethylureido)pyridin-4-yloxy)-1H-indole-1-carboxylic acid methylamide]	3 nM	47 nM		
CNC(=O)n1ccc2cc(Oc3ccnc(NC(=O)N[C@@H](CO)C(=O)N4CCCC4)c3)ccc21 [Example 18, 5-(2-(3-((1S)-1-Hydroxymethyl-2-oxo-2-pyrrolidin-1-ylethyl)ureido)pyridin-4-yloxy)-1H-indole-1-carboxylic acid methylamide]	3 nM	70 nM		
CNC(=O)n1ccc2cc(Oc3ccnc(NC(=O)NCCCC(=O)N4CCCC4)c3)ccc21 [Example 32, 5-(2-(3-(4-Oxo-4-(pyrrolidin-1-yl)butyl)ureido)pyridin-4-yloxy)-1H-indole-1-carboxylic acid methylamide]	9.3 nM	16 nM		
CNC(=O)n1ccc2cc(Oc3ccnc(NC(=O)NCCCC(=O)NC4CC4)c3)ccc21 [Example 33, 5-(2-(3-(3-(Cyclopropylcarbamoyl)propyl)ureido)pyridin-4-yloxy)-1H-indole-1-carboxylic acid methylamide]	7.1 nM	12 nM		
CNC(=O)n1ccc2cc(Oc3ccnc(NC(=O)NCCCC(=O)N4CCC(C)(O)CC4)c3)ccc21 [Example 34, 5-(2-(3-(4-(4-Hydroxy-4-methylpiperidin-1-yl)-4-oxobutyl)ureido)pyridin-4-yloxy)-1H-indole-1-carboxylic acid methylamide]	8.4 nM	22 nM		
CNC(=O)CCCNC(=O)Nc1cc(Oc2ccc3c(ccn3C(=O)NC)c2)ccn1 [Example 36, 5-(2-(3-(3-(Methylcarbamoyl)propyl)ureido)pyridin-4-yloxy)-1H-indole-1-carboxylic acid methylamide]	3.4 nM	16 nM		
CNC(=O)n1ccc2cc(Oc3ccnc(NC(=O)N4CCCC4)c3)ccc21 [Example 37, N1-Methyl-5-(2-(pyrrolidin-1-ylcarbonyl)amino-4-pyridyl)oxy-1H-1-indolecarboxamide]	4.8 nM	1.2 nM		
CNC(=O)n1ccc2cc(Oc3ccnc(NC(=O)N4CCC(=O)CC4)c3)ccc21 [Example 40, N1-methyl-5-(2-(4-oxopiperidin-1-ylcarbonyl)amino-4-pyridyl)oxy-1H-1-indolecarboxamide]			5.7 nM	6.9 nM
CNC(=O)CCCC1CCN(C(=O)Nc2cc(Oc3ccc4c(ccn4C(=O)NC)c3)ccn2)CC1 [Example 43, 5-(2-(((4-(3-Methylcarbamoylpropyl)piperidin-1-yl)carbonyl)amino)pyridin-4-yloxy)-1H-indole-1-carboxylic acid methylamide]	6.4 nM	18 nM		
CNC(=O)n1ccc2cc(Oc3ccnc(NC(=O)N4CCC(CCCC(N)=O)CC4)c3)ccc21 [Example 44, 5-(2-(((4-(3-Carbamoylpropyl)piperidin-1-yl)carbonyl)amino)pyridin-4-yloxy)-1H-indole-1-carboxylic acid methylamide]	7.7 nM	14 nM		
CNC(=O)n1ccc2cc(Oc3ccnc(NC(=O)NCCCS(C)(=O)=O)c3)ccc21 [Example 50, N1-Methyl-5-(2-((3-methylsulfonylpropylamino)carbonyl)amino-4-pyridyl)-oxy-1H-1-indolecarboxamide]	5 nM	13 nM		
O=C(Nc1cc(Oc2ccc3c(ccn3C(=O)NC3CC3)c2)ccn1)N1CCC(N2CCCC2)CC1 [Example 68, N1-Cyclopropyl-5-(2-(((4-(pyrrolidin-1-yl)piperidin-1-yl)carbonyl)amino)pyridin-4-yloxy)-1H-1-indolecarboxamide]	37 nM	52 nM		
